Test results taken from PubChem BioAssay AID1963869 (Molecular Pharmacology Branch, DTP, NCI, 2024).

Test system: KRAS patient-derived spheroids with HUVEC/MSC, viability
Experiment: Anticancer human tumor 323965-272-R-J2-PDC patient-derived pancreatic carcinoma cell line growth inhibition [KRAS2]
Settings: for viability, T/C: stronger effect = lower value
Method in brief: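 KRAS-mutant tumor cells were grown as spheroids with HUVEC endothelial cells and human MSCs as stroma. Targeted agents were tested alone and with KRAS pathway inhibitors. Doses started at or near clinical Cmax, or 10 microM, descending half-log.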

[1] = curve of first compound, second compound 0.1 µM
[2] = curve of first compound, second compound 0.316 µM
[3] = curve of first compound, second compound 1 µM
[4] = curve of first compound, second compound 3.16 µM
[5] = curve of first compound, second compound 10 µM
[6] = second compound 0.1 µM, first compound 0.0316 µM
[7] = second compound 0.316 µM, first compound 0.0316 µM
[8] = second compound 1 µM, first compound 0.0316 µM
[9] = second compound 3.16 µM, first compound 0.0316 µM
[10] = second compound 10 µM, first compound 0.0316 µM
[11] = second compound 0.1 µM, first compound 0.1 µM
[12] = second compound 0.1 µM, first compound 0.316 µM
[13] = second compound 0.1 µM, first compound 1 µM
[14] = second compound 0.1 µM, first compound 3.16 µM
[15] = second compound 0.1 µM, first compound 10 µM
[16] = second compound 0.316 µM, first compound 0.1 µM
[17] = second compound 0.316 µM, first compound 0.316 µM
[18] = second compound 0.316 µM, first compound 1 µM
[19] = second compound 0.316 µM, first compound 3.16 µM
[20] = second compound 0.316 µM, first compound 10 µM
[21] = second compound 1 µM, first compound 0.1 µM
[22] = second compound 1 µM, first compound 0.316 µM
[23] = second compound 1 µM, first compound 1 µM
[24] = second compound 1 µM, first compound 3.16 µM
[25] = second compound 1 µM, first compound 10 µM
[26] = second compound 3.16 µM, first compound 0.1 µM
[27] = second compound 3.16 µM, first compound 0.316 µM
[28] = second compound 3.16 µM, first compound 1 µM
[29] = second compound 3.16 µM, first compound 3.16 µM
[30] = second compound 3.16 µM, first compound 10 µM
[31] = second compound 10 µM, first compound 0.1 µM
[32] = second compound 10 µM, first compound 0.316 µM
[33] = second compound 10 µM, first compound 1 µM
[34] = second compound 10 µM, first compound 3.16 µM
[35] = second compound 10 µM, first compound 10 µM
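Note: spheroids exposed to agents for 7 days.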
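Throughout, for viability, T/C: 100% = DMSO vehicle control viability.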

In the case of `CC(=O)Nc1cccc(-n2c(=O)n(C3CC3)c(=O)c3c(Nc4ccc(I)cc4F)n(C)c(=O)c(C)c32)c1`, the viability, T/C (compound 0.0001 µM) is reported as 98.3% [middle of 5 runs], the viability, T/C (compound 0.000316 µM) is reported as 90.7% [middle of 5 runs] and the viability, T/C (compound 0.001 µM) is reported as 76.2% [middle of 5 runs]. For the same molecule, the viability, T/C (compound 0.00316 µM) was 57.5% [middle of 5 runs], the viability, T/C (compound 0.01 µM) was 44.7% [middle of 5 runs] and the viability, T/C (compound 0.0316 µM) was 31.2% [middle of 5 runs]. For the same molecule, the IC50 (curve of compound) was 5.93 nM [middle of 5 runs].

Work on `CC(=O)Nc1cccc(-n2c(=O)n(C3CC3)c(=O)c3c(Nc4ccc(I)cc4F)n(C)c(=O)c(C)c32)c1` + COc1cc2nc(C)nc(NC(C)c3cc(N)cc(C(F)(F)F)c3)c2cc1OC1CCOC1 yielded an IC50 [1] of 1.6 nM, an IC50 [2] of 0.949 nM and an IC50 [3] of 0.713 nM. It also gave an IC50 [4] of 0.703 nM, an IC50 [5] of 1.09 nM and a viability, T/C (second compound 0.1 µM, first compound 0.0001 µM) of 84.1%. For the same molecule, the viability, T/C (second compound 0.1 µM, first compound 0.000316 µM) was 67.3%, the viability, T/C (second compound 0.1 µM, first compound 0.001 µM) was 54.5% and the viability, T/C (second compound 0.1 µM, first compound 0.00316 µM) was 43.7%. For the same molecule, the viability, T/C (second compound 0.1 µM, first compound 0.01 µM) was 32.6%, the viability, T/C [6] was 23.7% and the viability, T/C (second compound 0.316 µM, first compound 0.0001 µM) was 67.8%. It also gave a viability, T/C (second compound 0.316 µM, first compound 0.000316 µM) of 59.6%, a viability, T/C (second compound 0.316 µM, first compound 0.001 µM) of 48.9% and a viability, T/C (second compound 0.316 µM, first compound 0.00316 µM) of 39.6%. It also gave a viability, T/C (second compound 0.316 µM, first compound 0.01 µM) of 31.9%, a viability, T/C [7] of 22% and a viability, T/C (second compound 1 µM, first compound 0.0001 µM) of 73.5%. It also gave a viability, T/C (second compound 1 µM, first compound 0.000316 µM) of 60.4%, a viability, T/C (second compound 1 µM, first compound 0.001 µM) of 43.5% and a viability, T/C (second compound 1 µM, first compound 0.00316 µM) of 37.4%. It also gave a viability, T/C (second compound 1 µM, first compound 0.01 µM) of 28.5%, a viability, T/C [8] of 20.8% and a viability, T/C (second compound 3.16 µM, first compound 0.0001 µM) of 73%. It also gave a viability, T/C (second compound 3.16 µM, first compound 0.000316 µM) of 57.9%, a viability, T/C (second compound 3.16 µM, first compound 0.001 µM) of 44.6% and a viability, T/C (second compound 3.16 µM, first compound 0.00316 µM) of 36.3%. The viability, T/C (second compound 3.16 µM, first compound 0.01 µM) was 28.7%, the viability, T/C [9] was 18.4% and the viability, T/C (second compound 10 µM, first compound 0.0001 µM) was 80.7%. For the same molecule, the viability, T/C (second compound 10 µM, first compound 0.000316 µM) was 68.2%, the viability, T/C (second compound 10 µM, first compound 0.001 µM) was 49.2% and the viability, T/C (second compound 10 µM, first compound 0.00316 µM) was 36.3%. The viability, T/C (second compound 10 µM, first compound 0.01 µM) was 26.1% and the viability, T/C [10] was 12.7%.

`CCNC(=O)CC1N=C(c2ccc(Cl)cc2)c2cc(OC)ccc2-n2c(C)nnc21` (stereo unspecified) was tested, and the viability, T/C (compound 0.0316 µM) was 97.2% [middle of 5 runs], the viability, T/C (compound 0.1 µM) was 83.4% [middle of 5 runs] and the viability, T/C (compound 0.316 µM) was 62.2% [middle of 5 runs]. The viability, T/C (compound 1 µM) was 44.5% [middle of 5 runs], the viability, T/C (compound 3.16 µM) was 39.8% [middle of 5 runs] and the viability, T/C (compound 10 µM) was 36.7% [middle of 5 runs]. For the same molecule, the IC50 (curve of compound) was 798 nM [middle of 5 runs].

Molecule `O=C(c1cc(Cc2n[nH]c(=O)c3ccccc23)ccc1F)N1CCN(C(=O)C2CC2)CC1` + C=CC(=O)N1CCN(c2nc(OCC3CCCN3C)nc3c2CCN(c2cccc4cccc(C)c24)C3)CC1CC#N has an IC50 (curve of first compound, second compound 0.0316 µM) of 8150 nM, an IC50 [1] greater than 10000 nM and an IC50 [2] of 4290 nM. The IC50 [3] was 6240 nM, the IC50 [4] was less than 31.6 nM and the viability, T/C (second compound 0.0316 µM, first compound 0.0316 µM) was 79.1%. The viability, T/C (second compound 0.0316 µM, first compound 0.1 µM) was 77.5%, the viability, T/C (second compound 0.0316 µM, first compound 0.316 µM) was 76.1% and the viability, T/C (second compound 0.0316 µM, first compound 1 µM) was 71.6%. For the same molecule, the viability, T/C (second compound 0.0316 µM, first compound 3.16 µM) was 74.3%, the viability, T/C (second compound 0.0316 µM, first compound 10 µM) was 44.9% and the viability, T/C [6] was 61.4%. The viability, T/C [11] was 64.6%, the viability, T/C [12] was 61.8% and the viability, T/C [13] was 60.4%. The viability, T/C [14] was 57.5%, the viability, T/C [15] was 48.5% and the viability, T/C [7] was 57.8%. For the same molecule, the viability, T/C [16] was 60.1%, the viability, T/C [17] was 55.4% and the viability, T/C [18] was 58%. For the same molecule, the viability, T/C [19] was 51.8%, the viability, T/C [20] was 43.1% and the viability, T/C [8] was 61.6%. For the same molecule, the viability, T/C [21] was 63.5%, the viability, T/C [22] was 63.3% and the viability, T/C [23] was 59.7%. The viability, T/C [24] was 50.8%, the viability, T/C [25] was 48.3% and the viability, T/C [9] was 33.7%. For the same molecule, the viability, T/C [26] was 27.4%, the viability, T/C [27] was 25.1% and the viability, T/C [28] was 31.8%. It also gave a viability, T/C [29] of 34.7% and a viability, T/C [30] of 25.1%.

For `COC(=O)c1ccc2c(C(=Nc3ccc(N(C)C(=O)CN4CCN(C)CC4)cc3)c3ccccc3)c(O)[nH]c2c1` + CC1OCC2(CCN(c3cnc(Sc4ccnc(N)c4Cl)c(N)n3)CC2)C1N, the IC50 [1] was greater than 10000 nM, the IC50 [2] was 5080 nM and the IC50 [3] was less than 31.6 nM. It also gave an IC50 [4] of less than 31.6 nM, an IC50 [5] of less than 31.6 nM and a viability, T/C [6] of 78.8%. For the same molecule, the viability, T/C [11] was 85.7%, the viability, T/C [12] was 81.8% and the viability, T/C [13] was 76.3%. The viability, T/C [14] was 79.1%, the viability, T/C [15] was 73.4% and the viability, T/C [7] was 74.8%. It also gave a viability, T/C [16] of 59.2%, a viability, T/C [17] of 61.1% and a viability, T/C [18] of 65.2%. For the same molecule, the viability, T/C [19] was 50%, the viability, T/C [20] was 45.8% and the viability, T/C [8] was 45.3%. For the same molecule, the viability, T/C [21] was 47.9%, the viability, T/C [22] was 53.2% and the viability, T/C [23] was 41.6%. For the same molecule, the viability, T/C [24] was 43.9%, the viability, T/C [25] was 41.6% and the viability, T/C [9] was 34.6%. For the same molecule, the viability, T/C [26] was 38.7%, the viability, T/C [27] was 35.2% and the viability, T/C [28] was 36%. For the same molecule, the viability, T/C [29] was 31.9%, the viability, T/C [30] was 33.3% and the viability, T/C [10] was 31.8%. It also gave a viability, T/C [31] of 30.3%, a viability, T/C [32] of 29.7% and a viability, T/C [33] of 27.5%. It also gave a viability, T/C [34] of 23.4% and a viability, T/C [35] of 23.2%.

In the case of `CC(C)NCC(C(=O)N1CCN(c2ncnc3c2C(C)CC3O)CC1)c1ccc(Cl)cc1` (stereo unspecified), the viability, T/C (compound 0.0316 µM) is reported as 97.7% [middle of 5 runs], the viability, T/C (compound 0.1 µM) is reported as 94% [middle of 5 runs] and the viability, T/C (compound 0.316 µM) is reported as 84.9% [middle of 5 runs]. The viability, T/C (compound 1 µM) was 64.6% [middle of 5 runs], the viability, T/C (compound 3.16 µM) was 50.4% [middle of 5 runs] and the viability, T/C (compound 10 µM) was 41.8% [middle of 5 runs]. The IC50 (curve of compound) was 2.93 µM [middle of 5 runs].

With `CC1OCC2(CCN(c3cnc(Sc4ccnc(N)c4Cl)c(N)n3)CC2)C1N` (stereo unspecified) + COc1cc2nc(C)nc(NC(C)c3cc(N)cc(C(F)(F)F)c3)c2cc1OC1CCOC1 the IC50 [1] was 118 nM, the IC50 [2] was 54.9 nM and the IC50 [3] was less than 31.6 nM. The IC50 [4] was less than 31.6 nM, the IC50 [5] was less than 31.6 nM and the viability, T/C [6] was 66.7%. For the same molecule, the viability, T/C [11] was 49.4%, the viability, T/C [12] was 41.4% and the viability, T/C [13] was 33%. For the same molecule, the viability, T/C [14] was 24.1%, the viability, T/C [15] was 21.1% and the viability, T/C [7] was 52.5%. The viability, T/C [16] was 47.9%, the viability, T/C [17] was 40.2% and the viability, T/C [18] was 27.5%. The viability, T/C [19] was 26.1%, the viability, T/C [20] was 19.1% and the viability, T/C [8] was 43.5%. It also gave a viability, T/C [21] of 34.6%, a viability, T/C [22] of 31.1% and a viability, T/C [23] of 24.7%. For the same molecule, the viability, T/C [24] was 19.4%, the viability, T/C [25] was 20.6% and the viability, T/C [9] was 46.6%. It also gave a viability, T/C [26] of 33.7%, a viability, T/C [27] of 29.6% and a viability, T/C [28] of 17.7%. For the same molecule, the viability, T/C [29] was 13.8%, the viability, T/C [30] was 16.9% and the viability, T/C [10] was 49.2%. For the same molecule, the viability, T/C [31] was 35.6%, the viability, T/C [32] was 17.5% and the viability, T/C [33] was 12.9%. For the same molecule, the viability, T/C [34] was 11.5% and the viability, T/C [35] was 11.4%.
